Measured values published in patent publication US20050075398A1, “Neuroprotectin D1 protects against cellular apoptosis, stroke damage, alzheimer's disease and retinal diseases” (priority 2003, published 2005).

Legend:
Bcl-xL = assay: Western blot of Bcl-xL in ARPE-19 cells under TNFα/H2O2; format: cell-based, human; conditions: 50 nM; TNFα plus H2O2 (400 or 800 μM) 6 h
Protocol: Analysis of pro- and anti-apoptotic proteins in ARPE-19 cells: Bcl-2 family proteins were analyzed by Western-blot analysis. In brief, 20-μg equivalents of each cell extract were subjected to electrophoresis on a 8-16% gel (Promega, Madison, Wis.) at 125 volts for 2 h. The proteins were transferred to nitrocellulose membrane at 30 volts for 1 h at 4° C. The membranes were subjected to treatment with primary antibodies of Bcl-2, Bcl-xL, Bax, and Bad for 1 h at room temperature, and probed 30 min with secondary antibody, goat anti-rabbit Ig:HRPO and HRP-conjugated anti-biotin antibody. (BD Sciences—Pharminogen, San Diego, Calif.) Then proteins were evaluated using an ECL kit. (Amersham Biosciences Corp., Piscataway, N.J.)
Using the same TNFα/H2O2 concentrations, Bcl-2 proteins were assayed. Cells were grown for 72 h after plating, placed in serum-free medium for 1 h, then incubated with TNFα/H2O2 for 6 h. Protein expression and Western-blot analysis were performed as described in Example 13. Data in FIGS. 14A, 14B, 14C and 14D represent four independent experiments with triplicate samples in each case. Anti-apoptotic protein Bcl-xL was enhanced in ARPE-19 cells by TNFα/H2O2 (800 μM) (FIG. 14B, first bar), whereas Bcl-2 was not changed (FIG. 14A, first bar).

[1] = system: polymorphonuclear leukocyte infiltration (myeloperoxidase activity); assay: Myeloperoxidase (MPO) activity assay in hippocampus and neocortex after MCA-O and reperfusion; format: in vivo, mouse; conditions: 0.4 μg over 48 h cerebroventricular perfusion; 1 h MCA-O, 48 h reperfusion
Protocol: Middle Cerebral Artery Occlusion (MCA-O) and reperfusion. Experimental protocols were reviewed and approved by the Institutional Animal Care and Use Committee of Louisiana State University Health Sciences Center, New Orleans. Mice (20-25 g body wt) were induced with 2% isoflurane in a mixture of 70% nitrous oxide and 30% oxygen. Anesthesia was maintained with 1% isoflurane. Temperature was maintained at 36.5-37.5° C. using a Harvard homeothermic blanket. P 10 polyethylene catheters were placed in the femoral artery and vein, and the blood pressure was monitored. Arterial blood was analyzed for PO2, PCO2, and pH after 1 h of ischemia and 30 min after the onset of reperfusion. The common carotid and external carotid arteries were temporarily ligated with a retracting suture, and the external carotid artery was dissected just proximal to its bifurcation. The occluding filament was introduced from the external carotid artery and advanced to the internal carotid artery. The AVM micro clip was removed. The filament was advanced so that the blunted tip lay in the anterior cerebral artery and the side of the filament occluded the origin of the middle cerebral artery (MCA). The stump of the external carotid artery was ligated, and tension on the retracting suture to the common carotid artery was gently released, restoring blood flow to the carotid system.
Occlusion of the middle cerebral artery (MCA-O) was maintained for 1 h; reperfusion was then established by delicate retrieval of the occluding suture from the arterial lumen, restoring blood flow to the region of the MCA. The mice were then killed, and the hippocampus and brain cortex rapidly dissected and frozen. Samples were kept at −80° C. until analysis. In some experiments, aspirin (7.5 mg/kg) was administered by gavage 15 min before MCA-O.
Polymorphonuclear leukocyte infiltration measurement by the myeloperoxidase (MPO) assay. Inhibition of leukocyte infiltration by 10,17S-docosatriene (NPD1) or docosahexaenoic acid (DHA) was measured in mouse hippocampus and neocortex after 1 h of middle cerebral artery occlusion (MCA-O) and 48 h of reperfusion. Lipids were delivered for each experiment by perfusion (250 nl/h) through Alzet minipumps implanted into the third ventricle. Hippocampus and neocortex from the ipsilateral (MCA-O-reperfusion) and contralateral sides were rapidly dissected. Brain samples were assayed for myeloperoxidase activity as described in Huang, J., Choudhri, T. F., Winfree, C. J., McTaggart, R. A., Kiss, S., Mocco, J., Kim, L. J., Protopsaltis, T. S., Zhang, Y., Pinsky, D. J., and Connolly Jr., E. S. (2000) Stroke 31, 3047-3053. Briefly, brain tissues were homogenized in 10 mM phosphate buffer (pH 7.4), then frozen and thawed with liquid N2 followed by sonication. Samples were precipitated at 10,000×g for 10 min, then aliquots of supernatants were added to 10 mM phosphate buffer (pH 6.0) and a substrate solution containing o-dianisidine (Sigma; St. Louis, Mo.) and 0.025% hydrogen peroxide, and finally incubated at 37° C. for 45 min. Spectrophotometric detection was obtained at 460 nm.

human COX-2 promoter = assay: IL-1β-induced human COX-2 promoter-luciferase assay in ARPE-19 cells; format: cell-based; conditions: IL-1β 10 ng/ml 8 h, NPD1 0.05 to 100 nM, read-out: IC50, IL-1β induction of the COX-2 promoter
Protocol: Transfection of ARPE-19 cells with human COX-2 (830 bp): ARPE-19 cells growing in 12-well plates were transfected with 5 μg human COX-2-luciferase construct (830 bp) by FuGENE-6 (obtained from Drs. S. Prescott and D. Dixon, Vanderbilt University, Nashville, Tenn.). Four hours later, the medium containing FuGENE-6 was removed, fresh DMEM-F12 (10% FBS) was added, and the cells further incubated 8 h at 37° C. Transfected cells were serum-starved for 4 h and challenged with IL-1β (10 ng/ml) for 8 h with or without NPD1. NPD1 was added at concentrations from 0.05 to 100 nm. Eight hours later, cell homogenates were made, protein concentrations were adjusted, and luciferase assays were performed using 20 μg equivalent protein in Monolight 2010 for 20 seconds with luciferin as substrate, as described below.
Luciferase assay: The medium containing IL-1β and NPD1 was removed, and the cells were washed with 1 ml cold PBS. The cells were scraped and centrifuged 2500×g for 20 minutes at 4° C. The cell pellet was re-suspended in 500 μl of 2×luciferase assay buffer (ALL, 0.2 mM tricine, 2 mM DTT, 30 mM MgSO4 and 10 mM ATP). […] The relative light units were determined by using an ALL luminometer recording over a 20-second interval, as described in Bazan, N. G., Fletcher, B. S., Herschman, H. R. & Mukherjee, P. K. (1994) Proc. Natl. Acad. Sci. U.S.A. 91:5252-5256. […]

## CC/C=C\C[C@H](O)\C=C/C=C/C=C/[C@H](O)C/C=C\C/C=C\CCC(=O)O [NPD1, 10,17S-docosatriene]
Bcl-xL
  effect on Bcl-xL expression: increased expression
[1]
  inhibition of ipsilateral myeloperoxidase activity, cortex: 99%
  inhibition of ipsilateral myeloperoxidase activity, hippocampus: 80%
Human COX-2 promoter
  IC50: < 5 nM
